Reference: paper PMC9709425, “The inhibition of NCS-1 binding to Ric8a rescues fragile X syndrome mice model phenotypes” (Frontiers in Neuroscience, 2022)

What was measured:
DA metabolism = assay: DA levels and DA metabolic profile (HPLC) in brain areas of Fmr1 KO mice; format: in vivo, mouse; details: FD44 IP for 4 weeks
Protocol: FD44 solution formulation in 5% NMP, 5% Solutol HS-15, 30% PEG-400, and 60% citric acid (10 mM) was administered in doses of 10 and 50 mg/kg dose intraperitoneally and orally, respectively. A single dose was administered to 8–12-month-old mice for PK and a daily intraperitoneal dose to 2-month-old mice for 4 weeks for further behavioral and biochemical studies. […] PK was performed in collaboration with Sai life Science Ltd. Blood samples were collected from retro-orbital plexus into ethylenediamine tetraacetic acid (EDTA) tubes from a set of three mice at each time point. Plasma was immediately harvested from the blood by centrifugation at 2,500 g for 10 min at 4°C. […] Concentrations of FD44 in mouse plasma and brain samples were determined by the fit-for-purpose liquid chromatography with tandem mass spectrometry (LC-MS/MS) method. PK parameters were calculated using the non-compartmental analysis tool of Phoenix WinNonlin® (Version 7.0). Areas under the concentration time curve (AUClast and AUCinf) were calculated using a linear trapezoidal rule. […]
Tissue samples were preserved at −80°C until analysis. […] DA and its metabolites were measured from supernatants by HPLC with an ESA Coulochem detector, according to Mena et al. ([1993]). […] Monoamine levels were identified by their retention time, and amounts were calculated against calibrated external standard solutions. […]

[1] = system: Fmr1 KO, Fmr1 KO2, and WT mice; assay: Tolerability on treatment of mice; format: in vivo; details: 10 mg/kg IP / 50 mg/kg PO
Protocol: (§1) FD44 solution formulation in 5% NMP, 5% Solutol HS-15, 30% PEG-400, and 60% citric acid (10 mM) was administered in doses of 10 and 50 mg/kg dose intraperitoneally and orally, respectively. A single dose was administered to 8–12-month-old mice for PK and a daily intraperitoneal dose to 2-month-old mice for 4 weeks for further behavioral and biochemical studies. […] PK was performed in collaboration with Sai life Science Ltd. Blood samples were collected from retro-orbital plexus into ethylenediamine tetraacetic acid (EDTA) tubes from a set of three mice at each time point. Plasma was immediately harvested from the blood by centrifugation at 2,500 g for 10 min at 4°C. Immediately after collection of blood, brain samples were collected and homogenized using ice-cold phosphate buffer saline. Concentrations of FD44 in mouse plasma and brain samples were determined by the fit-for-purpose liquid chromatography with tandem mass spectrometry (LC-MS/MS) method. PK parameters were calculated using the non-compartmental analysis tool of Phoenix WinNonlin® (Version 7.0). Areas under the concentration time curve (AUClast and AUCinf) were calculated using a linear trapezoidal rule.

[2] = set-up: method as in Mansilla et al., 2017; details: among compounds previously identified as NCS-1/Ric8a inhibitors; ref Mansilla et al., 2017; cited from earlier work
neuronal cultures = system: neuronal cultures; set-up: method as in Mansilla et al., 2017; details: ref Mansilla et al., 2017; cited from earlier work
Fmr1 KO mice [3] = assay: Three-chamber social test in Fmr1 KO mice; format: in vivo, mouse; details: 10 mg/kg IP for 4 weeks
Protocol: as §1
The three-chamber test assesses cognition in the form of interest in social novelty. Testing occurs in a three-chambered box with openings between the chambers. […] The time spent in each chamber is quantified for 6 min.

Fmr1 KO2 mice [4] = assay: Open field test (hyperactivity) in Fmr1 KO2 mice; format: in vivo, mouse; details: 10 mg/kg IP daily for 4 weeks
Protocol: (§2) FD44 solution formulation in 5% NMP, 5% Solutol HS-15, 30% PEG-400, and 60% citric acid (10 mM) was administered in doses of 10 and 50 mg/kg dose intraperitoneally and orally, respectively. A single dose was administered to 8–12-month-old mice for PK and a daily intraperitoneal dose to 2-month-old mice for 4 weeks for further behavioral and biochemical studies. […] PK was performed in collaboration with Sai life Science Ltd. Blood samples were collected from retro-orbital plexus into ethylenediamine tetraacetic acid (EDTA) tubes from a set of three mice at each time point. Plasma was immediately harvested from the blood by centrifugation at 2,500 g for 10 min at 4°C. […] Concentrations of FD44 in mouse plasma and brain samples were determined by the fit-for-purpose liquid chromatography with tandem mass spectrometry (LC-MS/MS) method. PK parameters were calculated using the non-compartmental analysis tool of Phoenix WinNonlin® (Version 7.0). Areas under the concentration time curve (AUClast and AUCinf) were calculated using a linear trapezoidal rule.
(§3) Tests were conducted at the end of the treatment, that is, 4th week, and mice were tested on one behavioral task a day. […] Activity was monitored by IR beam breaks and decoded using VersaDat software (AccuScan). […] The distance traveled for 30 min was measured in centimeter for all cases.

Fmr1 KO2 mice [5] = assay: Fear conditioning (associative learning) in Fmr1 KO2 mice; format: in vivo, mouse; details: 10 mg/kg IP daily for 4 weeks
Protocol: as §1
Associative learning of an aversive sound followed by an electrical shock was used to analyze fear conditioning. […] Memory was tested 24 h after training, and freezing time was recorded for 5 min.

Fmr1 KO2 mice [6] = assay: Aggression test (latency between attacks) in Fmr1 KO2 mice; format: in vivo, mouse; details: 10 mg/kg IP daily for 4 weeks
Protocol: as §2
(§4) Stereotype was evaluated by self-grooming. For this, mice were placed individually in a cage, after a 5-min habituation period, the time spent to grooming any part of the body was recorded for 3 min. […] The latency between attacks was measured for 3 min.

D2R = system: D2R; set-up: method as in Mansilla et al., 2017; details: ref Mansilla et al., 2017; cited from earlier work
[7] = Pharmacokinetic profile, plasma and brain, single dose in BALB/c WT mice; format: in vivo; details: mouse
Protocol: The pharmacokinetic (PK) assay was performed by Sai Life Sciences Ltd. in BALB/c WT mice aged 8–12-months.
as §1

D1R = system: D1R; set-up: method as in Mansilla et al., 2017; details: ref Mansilla et al., 2017; cited from earlier work
Fmr1 KO mice [8] = assay: Open field test (hyperactivity) in Fmr1 KO mice; format: in vivo, mouse; details: 10 mg/kg IP for 4 weeks
Protocol: as §2, §3

NCS-1/Ric8a complex [9] = biological target: T1, NCS-1/Ric8a complex (Homo sapiens, UniProt P62166); assay: In situ proximity ligation assay (PLA) of NCS-1 binding to Ric8a in HEK293 cells; format: cell-based; details: FD44 20 μM
T1 construct: expressed in transfected cells; host or cells: HEK293
Protocol: Human embryonic kidney HEK293 cells were grown in Dulbecco's modified Eagle's medium supplemented with 2 mM L-glutamine, 100 U/ml penicillin/streptomycin, MEM non-essential amino acid solution (1/100), and 5% (v/v), and heat-inactivated fetal bovine serum (all from Thermo). The human NCS-1 and Ric8a-V5 constructs were previously generated (Mansilla et al., [2017]). Plasmids were co-transfected onto HEK293 using Lipofectamin 2000 (Thermo) following the manufacturer's instructions. Approximately 20 μM of FD44 diluted in dimethyl sulfoxide (DMSO) or the same volume of DMSO was added to culture cells 24 h after transfection.
For the in situ proximity ligation assay (PLA), cells were grown in coverslips and, after transfection and treatment, fixed for 20 min with a fixation reagent, and later permeabilized with a permeabilization reagent, all from the Intracellular Fixation and Permeabilization buffer set (eBioscience, Thermo). […] Finally, interactions were detected with Duolink in Situ PLA Green Detection kit (Sigma) following the manufacturer's instructions. Cover slips were mounted with ProLong reagent (Thermo) containing Hoescht, and staining was analyzed with a standard fluorescence microscope.
To better quantify the interaction, PLA was performed followed by flow cytometry. […] Cells were analyzed on FACS Canto II (BD Bioscience) with BD FACS Diva software.

NCS-1/Ric8a complex [10] = system: NCS-1/Ric8a complex; set-up: method as in Mansilla et al., 2017; details: cell lysate; ref Mansilla et al., 2017; cited from earlier work
Fmr1 KO2 mice [11] = assay: Self-grooming (stereotype) in Fmr1 KO2 mice; format: in vivo, mouse; details: 10 mg/kg IP daily for 4 weeks
Protocol: as §2, §4

[12] = system: D. melanogaster FMRP mutants; details: Drosophila melanogaster FXS model (FMRP mutants or fmr1 RNAi strain), FD44 in the food; ref Mansilla et al., 2017; cited from earlier work

T1 sequence (P62166 2-190 limits assumed, one chain of several): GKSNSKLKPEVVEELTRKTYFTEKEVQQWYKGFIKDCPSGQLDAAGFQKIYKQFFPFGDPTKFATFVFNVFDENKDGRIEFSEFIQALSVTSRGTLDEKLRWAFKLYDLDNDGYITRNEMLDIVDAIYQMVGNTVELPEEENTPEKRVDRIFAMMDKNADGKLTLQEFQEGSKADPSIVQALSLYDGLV

O=C(CN1CCCCC1)NN1c2ccccc2Sc2ccccc21 [FD44]
DA metabolism ratio (metabolites HVA + DOPAC/DA) increase in the limbic area (DA metabolism): reversed
tolerability, clinical signs [1]: well tolerated
solubility profile [2]: best solubility profile
toxicity in neuronal cultures (neuronal cultures): low toxicity
social interest, time in chamber with unfamiliar vs familiar mouse (three-chamber test) (Fmr1 KO mice [3]): able to restore the impaired social interest
hyperactivity, distance traveled in the open field (Fmr1 KO2 mice [4]): complete recovery
associative learning, freezing response after fear conditioning (Fmr1 KO2 mice [5]): completely rescued impaired associative learning
aggression, latency between attacks (Fmr1 KO2 mice [6]): low level of aggressiveness similar to their WT counterparts
interaction with dopamine receptor D2R (D2R): does not interact
Cmax ([7]; IP, 10 mg/kg single dose, brain): 2560.16 ng/mL
Tmax ([7]; IP, 10 mg/kg single dose, brain, 10 mg/kg): 15 min
Brain-to-plasma ratio ([7]; IP, 10 mg/kg single dose): 2.48–7.65
time up to which brain concentrations were quantifiable ([7]; IP, 10 mg/kg single dose): up to 480 min
time up to which plasma concentrations were quantifiable ([7]; IP, 10 mg/kg single dose): up to 480 min
Cmax ([7]; IP, 10 mg/kg single dose, plasma): 981.19 ng/mL
Tmax ([7]; IP, 10 mg/kg single dose, plasma, 10 mg/kg): 5 min
Cmax ([7]; PO, 50 mg/kg single dose, brain): 5164.38 ng/mL
Tmax ([7]; PO, 50 mg/kg single dose, brain, 50 mg/kg): 15 min
Brain-to-plasma ratio ([7]; PO, 50 mg/kg single dose): 2.90 to 6.81
time up to which brain concentrations were quantifiable ([7]; PO, 50 mg/kg single dose): up to 480 min
time up to which plasma concentrations were quantifiable ([7]; PO, 50 mg/kg single dose): up to 480 min
Cmax ([7]; PO, 50 mg/kg single dose, plasma): 858.90 ng/mL
Tmax ([7]; PO, 50 mg/kg single dose, plasma, 50 mg/kg): 15 min
blood–brain barrier crossing ([7]; IP and PO PK study): perfectly crosses the blood–brain barrier
interaction with dopamine receptor D1R (D1R): does not interact
hyperactivity, distance traveled in the open field (Fmr1 KO mice [8]): normalizes
intensity and number of green fluorescence spots representing the NCS-1/Ric8a binding (PLA, microscopy) (NCS-1/Ric8a complex [9]; HEK293 co-transfected with NCS-1 and Ric8a-V5, 24 h): reduced
reduction in binding (PLA followed by flow cytometry, mean fluorescence intensity) (NCS-1/Ric8a complex [9]; HEK293 co-transfected with human NCS-1 and Ric8a-V5, last 24 h, four independent experiments): 40%
inhibitory effect in a binding assay in vitro (co-immunoprecipitation) (NCS-1/Ric8a complex [10]): almost total inhibitory effect
stereotype, self-grooming (Fmr1 KO2 mice [11]): restored
associative learning [12]: restored
synapse number [12]: restored
